Source: ChEMBL document CHEMBL1201862, “PubChem BioAssay data set” (2004)
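Following 48 hours of exposure in 96-well plates, responses at five concentrations were used to interpolate endpoints linearly. GI50 marks 50% less growth.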 Active and inactive are the calls of the source. No stated cut-off is given here; in the data, active = GI50 up to about 1.1 µM and inactive = higher.

Experiments:
Assay in all cases: inhibition of tumour cell growth, NCI panel, 48 h
[1] = system: 786-0
[2] = system: EKVX
[3] = system: Hs-578T
[4] = system: IGROV-1
[5] = system: KM12
[6] = system: M14
[7] = system: NCI-H226
[8] = system: NCI-H460
[9] = system: NCI-H522
[10] = system: NCI/ADR-RES
[11] = system: PC-3
[12] = system: SF-268
[13] = system: SF-295
[14] = system: SK-MEL-28
[15] = system: SK-MEL-2
[16] = system: SN12C
[17] = system: SNB-19
[18] = system: TK-10
[19] = system: UACC-257
[20] = system: UACC-62

SMILES | GI50 [1] | GI50 [2] | GI50 [3] | GI50 [4] | GI50 [5] | GI50 [6] | GI50 [7] | GI50 [8] | GI50 [9] | GI50 [10] | GI50 [11] | GI50 [12] | GI50 [13] | GI50 [14] | GI50 [15] | GI50 [16] | GI50 [17] | GI50 [18] | GI50 [19] | GI50 [20]
O=c1ccn(C2OC(CO)C(O)C2[Se]c2ccccc2)c(=O)[nH]1 (stereo not given) | > 100 µM (inactive) | > 100 µM (inactive) | > 100 µM (inactive) | > 100 µM (inactive) | > 100 µM (inactive) | > 100 µM (inactive) | > 100 µM (inactive) | > 100 µM (inactive) | 99.1 µM (inactive) | > 100 µM (inactive) | > 100 µM (inactive) | > 100 µM (inactive) | > 100 µM (inactive) | > 100 µM (inactive) | > 100 µM (inactive) | > 100 µM (inactive) | > 100 µM (inactive) | 0.24 µM (active) | 2.77 µM (inactive) | 0.353 µM (active)
Oc1cccc(-c2cc(=S)ss2)c1 | 19.7 µM (inactive) | 16.1 µM (inactive) | 16.3 µM (inactive) | 14.4 µM (inactive) | 18.6 µM (inactive) | 20.6 µM (inactive) | 18 µM (inactive) | 17.1 µM (inactive) | 6.89 µM (inactive) | 17.5 µM (inactive) | 14.4 µM (inactive) | 16.9 µM (inactive) | 14.3 µM (inactive) | 19.7 µM (inactive) | 15.6 µM (inactive) | 20.2 µM (inactive) | 19.7 µM (inactive) | 18.5 µM (inactive) | 14.9 µM (inactive) | 18.5 µM (inactive)
COC(=O)C(=O)C(C(=O)C(=O)Nc1ccccc1OC)c1nc2ccc([N+](=O)[O-])cc2nc1O (stereo not given) | > 100 µM (inactive) | 45.5 µM (inactive) | 78.2 µM (inactive) | 54.8 µM (inactive) | 54.3 µM (inactive) | > 100 µM (inactive) | > 100 µM (inactive) | 58.2 µM (inactive) | 65.2 µM (inactive) | > 100 µM (inactive) | > 100 µM (inactive) | > 100 µM (inactive) | > 100 µM (inactive) | > 100 µM (inactive) | > 100 µM (inactive) | > 100 µM (inactive) | 23.2 µM (inactive) | > 100 µM (inactive) | > 100 µM (inactive) | > 100 µM (inactive)
CC(=O)OCc1ccc2oc(=O)c(C(=O)Oc3ccccc3)cc2c1 | 20.3 µM (inactive) | 37.8 µM (inactive) | > 100 µM (inactive) | > 100 µM (inactive) | > 100 µM (inactive) | > 100 µM (inactive) | > 100 µM (inactive) | 67.1 µM (inactive) | > 100 µM (inactive) | > 100 µM (inactive) | 16.2 µM (inactive) | 55.7 µM (inactive) | > 100 µM (inactive) | 86.9 µM (inactive) | > 100 µM (inactive) | 30.1 µM (inactive) | > 100 µM (inactive) | 23.8 µM (inactive) | > 100 µM (inactive) | 17.7 µM (inactive)
NC1CC(=O)c2csc(Br)c21 (stereo not given) | 12.9 µM (inactive) | 15.1 µM (inactive) | 17.4 µM (inactive) | 7.76 µM (inactive) | 12.2 µM (inactive) | 19.5 µM (inactive) | 22.9 µM (inactive) | 20.3 µM (inactive) | 2.05 µM (inactive) | 20.1 µM (inactive) | 14 µM (inactive) | 20 µM (inactive) | 35.2 µM (inactive) | 18.5 µM (inactive) | 16 µM (inactive) | 13.4 µM (inactive) | 23.3 µM (inactive) | 12.9 µM (inactive) | 17.3 µM (inactive) | 16.5 µM (inactive)
COc1cccc(-c2nc(N)c(C#N)c3c2CCS(=O)(=O)c2ccc(C)cc2-3)c1 | 22.6 µM (inactive) | 50.6 µM (inactive) | 13.3 µM (inactive) | 15.2 µM (inactive) | 7.85 µM (inactive) | 25.7 µM (inactive) | > 51.5 µM (inactive) | 10.8 µM (inactive) | 2.68 µM (inactive) | 15.2 µM (inactive) | 15.8 µM (inactive) | 31.6 µM (inactive) | 23.6 µM (inactive) | > 78.5 µM (inactive) | 38.3 µM (inactive) | 44.4 µM (inactive) | > 31.3 µM (inactive) | > 68.9 µM (inactive) | 34.1 µM (inactive) | 17.7 µM (inactive)
O=C(O)/C=C(/CC(=O)O)C(=O)O | 17.5 µM (inactive) | 19.3 µM (inactive) | 19.9 µM (inactive) | 20.9 µM (inactive) | 23.8 µM (inactive) | 18.7 µM (inactive) | 21.6 µM (inactive) | 35.2 µM (inactive) | 17.9 µM (inactive) | 21 µM (inactive) | 19.6 µM (inactive) | 19 µM (inactive) | 18.1 µM (inactive) | 21.2 µM (inactive) | 19.5 µM (inactive) | 19.4 µM (inactive) | 22.2 µM (inactive) | 23.2 µM (inactive) | 33.1 µM (inactive) | 18.2 µM (inactive)
